Experimental data taken from publication PMC8279479, “Application of Alanine Scanning to Determination of Amino Acids Essential for Peptide Adsorption at the Solid/Solution Interface and Binding to the Receptor: Surface-Enhanced Raman/Infrared Spectroscopy versus Bioactivity Assays” (Journal of Medicinal Chemistry, 2021).
Where no end group is shown, it is not given here.

What was measured:
human BB1 receptor = human BB1 receptor (Homo sapiens, UniProt P28336); experiment: Intracellular inositol monophosphate (IP-One HTRF) assay, HEK-293 cells overexpressing BB1 receptor; assay type: cell-based; conditions: BB1R HEK-293
Chain of human BB1 receptor (P28336 whole entry): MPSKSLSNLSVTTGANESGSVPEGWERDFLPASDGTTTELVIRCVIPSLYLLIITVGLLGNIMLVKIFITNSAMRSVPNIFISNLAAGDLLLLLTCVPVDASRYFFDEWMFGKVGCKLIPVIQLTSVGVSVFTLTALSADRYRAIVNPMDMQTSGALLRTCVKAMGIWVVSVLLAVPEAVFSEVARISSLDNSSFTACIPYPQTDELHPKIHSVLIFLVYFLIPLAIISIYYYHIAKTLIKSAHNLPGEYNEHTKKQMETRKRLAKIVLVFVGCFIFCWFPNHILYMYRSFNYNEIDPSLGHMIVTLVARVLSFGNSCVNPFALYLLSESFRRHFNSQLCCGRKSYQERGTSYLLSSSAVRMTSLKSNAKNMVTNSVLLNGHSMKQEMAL
Method: (§1) Additionally, reference compounds BIM23042 and PD176252 (both from Tocris) antagonists of BB1 and BB2 receptors were used in a concentration of 10 μM (Figure 7).
(§2) The human BB1 receptor NM_002511.3 (GenScript) and BB2 receptor NM_002091 (cDNA Resource Center) sequences in pcDNA 3.1 + plasmids were introduced into the host cell by lipofection (Lipofectamine Reagent 3000, Thermo Fisher Scientific). Then, the transfected cells were selected with G-418 antibiotic at a dose of 500 μg/mL. Cells were grown under standard cell culture conditions (37 °C, 5% CO2) in DMEM supplemented with 10% FBS and Glutamax.
(§3) Receptor activity was determined by measuring the intracellular inositol monophosphate concentration using a homogeneous time-resolved fluorescence IP-one kit from Cis-bio, according to the manual. Briefly, 24 h before assay, cells were grown in an FBS-free DMEM medium. Then, the cells were scraped and centrifuged. The cell pellet was suspended in Hanks-HEPES (130 mM NaCl, 5.4 mM KCl, 1.8 mM CaCl2, 0.8 mM MgSO4, 0.9 mM NaH2PO4, 20 mM HEPES, LiCl 50 mM, and 3.25 mM glucose; pH 7.4). […] The cell suspension was then mixed with 5 μL of the IP1-acceptor conjugate and 5 μL of the anti-IP1-donor conjugate. After 1 h incubation at RT, fluorescence was read at 620 and 665 nm (Tecan; Infinite M1000). Results were calculated as the ratio (665 nm/620 nm) multiplied by 10^4. The signal was inversely proportional to the concentration of IP1 in the samples. Each sample was prepared in triplicate. Data were analyzed using GraphPad Prism version 5.04 for Windows (GraphPad software).

human BB2 receptor = human BB2 receptor (Homo sapiens, UniProt P30550); experiment: Intracellular inositol monophosphate (IP-One HTRF) assay, HEK-293 cells overexpressing BB2 receptor; assay type: cell-based; conditions: BB2R HEK-293
Chain of human BB2 receptor (P30550 whole entry): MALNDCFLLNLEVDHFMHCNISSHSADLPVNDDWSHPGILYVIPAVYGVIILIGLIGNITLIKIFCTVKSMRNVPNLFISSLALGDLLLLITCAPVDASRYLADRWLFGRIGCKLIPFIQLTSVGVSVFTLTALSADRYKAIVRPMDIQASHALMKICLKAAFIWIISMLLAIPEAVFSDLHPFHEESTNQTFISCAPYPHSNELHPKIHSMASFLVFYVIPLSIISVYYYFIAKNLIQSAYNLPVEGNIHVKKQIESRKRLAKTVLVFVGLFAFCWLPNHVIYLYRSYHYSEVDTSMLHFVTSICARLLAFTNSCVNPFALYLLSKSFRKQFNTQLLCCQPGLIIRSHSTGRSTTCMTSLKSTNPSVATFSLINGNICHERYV
Method: as §1, §2, §3

| Molecule | Effect of reference antagonist alone on basal receptor activity (IP1) (human BB1 receptor; reference compound 10 μM alone (Figure 7A)) | Effect of reference antagonist on IP1 concentration in the presence of agonist (human BB1 receptor; reference compound 10 μM with BN 150 nM (Figure 7A)) | Effect of reference antagonist alone on basal receptor activity (IP1) (human BB2 receptor; reference compound 10 μM alone (Figure 7B)) | Effect of reference antagonist on IP1 concentration in the presence of agonist (human BB2 receptor; reference compound 10 μM with BN 150 nM (Figure 7B)) | Agonist effect of compound alone on intracellular IP1 (human BB1 receptor; compound alone 25 μM, 1 h, 37 °C (Figure 7A)) | Agonist effect of compound alone on intracellular IP1 (human BB2 receptor; compound alone 25 μM, 1 h, 37 °C (Figure 7B)) |
| --- | --- | --- | --- | --- | --- | --- |
| COc1ccc(C2(CNC(=O)[C@](C)(Cc3c[nH]c4ccccc34)NC(=O)Nc3ccc([N+](=O)[O-])cc3)CCCCC2)nc1 [PD176252] | inhibited the basal activity | downregulated IP1 concentration to control level | inhibited the basal activity | significantly reduced its level |  |  |
| Asn-Gln-Ala-Ala-Val-Gly-His-Leu-Met-NH2 (NQAAVGHLM-NH2) [[Ala^3]BN^6–14] |  |  |  |  | little change in the activity | little change in the activity |
